Laboratory results taken from patent publication US5446032A, “Imidazo (4,5-C) pyridine derivatives as PAF antagonists” (British Biotech Pharmaceuticals Limited, priority 1991, dated 1995).

Molecular target: T1, PAF receptor (human platelet plasma membrane) (Homo sapiens, UniProt P25105)
T1 construct: Platelet concentrates are obtained from a hospital blood bank; from tissue; host or cells: human platelets (concentrates from a hospital blood bank), lysed by freeze-thaw; membrane fraction
Assay: Inhibition of [3H]-PAF receptor binding to human platelet plasma membrane
Conditions: [3H]-PAF 0.5 nM; 100 μg membrane fraction; 0° C.; 1 hour incubation; pH 7.0
Protocol: Compounds of general formula I inhibit PAF-induced functions in both the cellular and tissue levels by changing the PAF binding to its specific receptor site. The ability of compounds of general formula I to inhibit the binding of PAF to its specific receptor binding site on human platelet plasma membranes was measured according to Example 24.
Inhibition of [^3 H]-PAF Receptor Binding
The inhibition of [^3 H]-PAF binding to human platelet plasma membrane by compounds of general formula I is determined by isotopic labelling and filtration techniques. Platelet concentrates are obtained from a hospital blood bank. These platelet concentrates (500-2500 ml.) are centrifuged at 800 rpm for 10 minutes in a SORVALL RC3B centrifuge to remove the red blood cells present. (The word SORVALL is a trade mark.) The supernatant is subsequently centrifuged at 3,000 rpm in a SORVALL RC3B centrifuge to pellet the platelets present. The platelet rich pellets are resuspended in a minimum volume of buffer (150 mM NaCl, 10 mM Tris, 2 mM EDTA, pH 7.5) and layered onto Ficoll-Paque gradients, 9 ml platelet concentrate to 2 ml Ficoll, and centrifuged at 1,900 rpm for 15 minutes in a SORVALL RT6000 centrifuge. This step removes the residual red blood cells and other nonspecific material such as lymphocytes from the preparation. The platelets which form a band between the plasma and the Ficoll are removed, resuspended in the above buffer and centrifuged at 3,000 rpm for 10 minutes in a SORVALL RT6000 centrifuge. The pelleted platelets are resuspended in buffer (10 mM Tris, 5 mM MgCl2, 2 mM EDTA, pH 7.0), snap freezed in liquid N2 and allowed to thaw slowly at room temperature in order to lyse the platelets. The latter step is repeated at least 3 times to ensure proper lysis. The lysed platelets are centrifuged at 3,000 rpm for 10 minutes in a SORVALL RT6000 centrifuge and resuspended in buffer. The latter step is repeated twice in order to remove any cytoplasmic proteins which may hydrolyse the platelet activating factor (PAF) receptor. The prepared platelet membranes may be stored at -70° C. After thawing the prepared membranes are centrifuged in a SORVALL RT6000 at 3,000 rpm for 10 minutes and resuspended in assay buffer.
The assay is conducted by preparing a series of Tris-buffered solutions of the selected antagonist of predetermined concentrations. Each of these solutions contained [^3 H]-PAF (0.5 nM; 1-O-[^3 H]octadecyl-2-acetyl-sn-glycero-3-phosphoryl choline with a specific activity of 132 Ci/mmol), […], a known amount of the test antagonist, and a sufficient amount of Tris-buffer solution (10 mM Tris, 5 mM MgC2, pH 7.0, 0.25% BSA) to make the final volume 1 ml. Incubation is initiated by the addition of 100 μg of the isolated membrane fraction to each of the above solutions at 0° C. Two control samples, one (C1) which contained all the ingredients described above except the antagonist and the other (C2) contains C1 plus a 1000-fold excess of unlabelled PAF, are also prepared and incubated simultaneously with the test samples. After 1 hour incubation, each solution is filtered rapidly under vacuo through a WHATMAN GF/C glass fibre filter in order to separate unbound PAF from bound PAF. (The word WHATMAN is a trade mark.) The residue in each case is rapidly washed 4 times with 5 ml cold (4° C.) Tris-buffer solution. Each washed residue is dried under vacuum on a sampling manifold and placed into vials containing 20 ml of OPTIPHASE MP scintillation fluid and the radioactivity counted in a liquid scintillation counter. (The word OPTIPHASE is a trade mark.) Defining the counts for total binding with antagonist from a test sample as "TBA"; the counts for total binding from the control sample C1 as "TB"; and the counts for nonspecific binding from the control sample C2 as "NSB"; the percent inhibition of each test antagonist can be determined by the following equation:
%Inhibition=[(TB-TBA)/SB]×100
where the specific binding SB=TB-NSB […]

T1 sequence (P25105 whole entry): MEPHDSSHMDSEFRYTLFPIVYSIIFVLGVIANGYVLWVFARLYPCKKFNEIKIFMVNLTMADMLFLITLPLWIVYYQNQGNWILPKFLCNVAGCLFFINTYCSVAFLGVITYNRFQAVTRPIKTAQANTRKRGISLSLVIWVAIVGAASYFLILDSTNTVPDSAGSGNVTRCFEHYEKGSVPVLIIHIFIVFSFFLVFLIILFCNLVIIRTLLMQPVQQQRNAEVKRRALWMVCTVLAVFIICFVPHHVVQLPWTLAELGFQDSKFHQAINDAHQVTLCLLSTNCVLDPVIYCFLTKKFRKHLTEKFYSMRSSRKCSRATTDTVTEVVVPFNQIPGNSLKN

| SMILES | IC50 [nM] |
| --- | --- |
| CCOC(=O)[C@H](CC(C)C)N(C)S(=O)(=O)c1ccc(Cn2ccc3ncnc-3c2)cc1 [Example 1, N-Methyl-N-4-(5H-imidazo[4,5-c]pyridylmethyl)phenylsulphonyl-L-leucine ethyl ester] | 5 |
| C=CCOC(=O)[C@H]([C@@H](C)CC)N(C)S(=O)(=O)c1ccc(Cn2ccc3nc(C)nc-3c2)cc1 [Example 4, N-Methyl-N-4-(5H-2-methylimidazo[4,5-c]pyridylmethyl)phenylsulphonyl-L-isoleucine allyl ester] | 10 |
| CCOC(=O)[C@H](CC(C)C)N(C)S(=O)(=O)c1ccc(Cn2ccc3nc(C)nc-3c2)c(Cl)c1 [Example 5, N-Methyl-N-4-(5H-2-methylimidazo[4,5-c]pyridylmethyl)-3-chlorophenylsulphonyl-L-leucine ethyl ester] | 2 |
| CCOC(=O)CN([C@@H](CC(C)C)C(=O)OCC)S(=O)(=O)c1ccc(Cn2ccc3nc(C)nc-3c2)cc1 [Example 6, N-Ethoxycarbonylmethyl-N-4-(5H-2-methylimidazo[4,5-c]pyridylmethyl)phenylsulphonyl-L-leucine ethyl ester] | 10 |
| CCOC(=O)[C@H](CC(C)C)N(CC(=O)OC(C)(C)C)S(=O)(=O)c1ccc(Cn2ccc3nc(C)nc-3c2)cc1 [Example 8, N-t-Butyloxycarbonylmethyl-N-4-(5H-2-methylimidazo[4,5-c]pyridylmethyl)phenylsulphonyl-L-leucine ethyl ester] | 15 |
| Cc1nc2ccn(Cc3ccc(S(=O)(=O)N(C)[C@H](CO[Si](c4ccccc4)(c4ccccc4)C(C)(C)C)CC(C)C)cc3)cc-2n1 [Example 21, N-Methyl-N-4-(5H-2-methylimidazo[4,5-c]pyridylmethyl)phenylsulphonyl-L-leucinyl t-butyldiphenylsilyl ether] | 20 |
| COC(C)C(C(C)C)N(C)S(=O)(=O)c1ccc(Cn2ccc3nc(C)nc-3c2)cc1 (stereo not shown) [Example 23, N-Methyl-N-4-(5H-2-methylimidazo[4,5-c]pyridylmethyl)phenylsulphonyl-2-methoxy-3-amino-4-methylpentane] | 15 |
